Like-named read-outs stand apart in the source and are kept apart here. Blank lines part the entries; values can stand above or below the compound they belong to.
Columns and labels:
CMV retinitis = assay: Patient case, CMV retinitis (Example 5); assay type: in vivo, human
From the text: A person complains of gradual onset of floaters and progressive reduction of vision in both eyes, but without pain. The patient has been HIV+ for 7 years, and was recently hospitalized for Cryptococcal pneumonia. The patient is taking AZT, ddI, indinivir, and has been for the past three years, with moderate compliance. […] Granular hemorrhagic areas are noted throughout the retina, with a “brushfire” appearance. […] These findings are all evidence of CMV retinitis, secondary to AIDS. Ganciclovir-conjugate 0.5% 1 drop four times daily in both eyes is prescribed. At a two-week follow-up examination, the patient states full compliance with the treatment protocol. The patient also states an improvement in vision with a reduced number of floaters. […] The patient is advised to continue the ganciclovir-conjugate drops indefinitely.

[1] = assay type: in vivo, human
Protocol: A person receives a routine eye examination. […] With their habitual spectacle correction, their best corrected visual acuities are 20/20 in both eyes. Their pupils are found to be round, equally reactive to light, and without any presence of afferent pupillary defect. […] Their intraocular pressures are measured at 32 mmHg in both eyes (with the Goldmann tonometer at 3 pm). […] A Humphrey C-20 automated threshold visual field test indicates the presence of generalized depression in both eyes. […] Their blood pressure is 125/85 and their pulse rate is 60 beats/min. Because of the enlarged cup to disc ratio, elevated intraocular pressures, and the generalized depression of the threshold visual fields, they are diagnosed with open angle glaucoma. Timolol 0.5% 1 drop two times daily in both eyes is prescribed for two weeks. The patient is to return in two weeks for a follow-up evaluation. At the follow-up evaluation, they state that they have been compliant with the prescribed therapy. Their intraocular pressure is measured at 28 mmHg at 1 pm with the Goldmann tonometer. Their blood pressure is 118/86 and their pulse rate is 65 beats/min. Bromonidine-conjugate 0.2% 1 drop two times daily in both eyes is added to the treatment regimen. After another two weeks, the patient has a follow-up evaluation, during which, the patient's intraocular pressure measures 18 mmHg in the right eye, and 17 mmHg in the left eye. Their blood pressure and pulse rate remain normal. The patient is re-evaluated every 3 months with the continuation of combination therapy.

[2] = Apparent octanol/water partition coefficient; assay type: physicochemical; details: memantine HCl, printed as Log 3.0
From the text: (§1) For example, memantine may be employed as an EEC in accordance with this invention. […] The memantine HCl apparent octanol/water partition coefficient is Log 3.0. The high apparent partition and high solubility appear contradictory. However, the charged amine of memantine HCl (pKa 10.27) results in the high solubility while the free base results in the high partitioning of memantine into octanol. As the HCl salt and free base are in equilibrium, permeation of the free base through biologic tissues results. The impact of a high solubility and a high partition coefficient of the free base are a high bioavailability.

[3] = Aqueous solubility of memantine HCl; assay type: physicochemical; details: HCl salt, pH 6.5 aqueous solution
From the text: as §1

pKa of the charged amine = assay type: physicochemical; details: charged amine of memantine HCl
From the text: as §1

[4] = Autoradiography of the eye after topical ophthalmic instillation; assay type: in vivo, albino and pigmented rabbits
Protocol: General disposition of topical ophthalmic 1-amino-3,5-dimethyladamantane hydrochloride (memantine) instillation was assessed by autoradiography. Briefly, albino and pigmented rabbits were dosed via topical ophthalmic instillation with a 0.74% aqueous isotonic memantine solution, pH 7.4. After dosing autoradiographic sections of the eye were acquired at 0.25, 0.5, 1, and 2 and 24 hours post dosing. […] Further, a qualitative assessment of residence time could be made from the data.

[5] = Ocular tissue concentrations after oral and topical dosing; assay type: in vivo, Rabbits; details: rabbit, retina, read-out: retinal memantine concentration
Protocol: Ocular tissue concentrations were also determined after oral and topical dosing. Rabbits were dosed topically with 35 μl of a 0.1% aqueous solution of memantine twice a day for 7 days. Another subset of rabbits was dosed orally with 2 mg/kg memantine for seven days. At the end of the dosing period ocular tissue concentrations were quantified. The retinal memantine concentrations from topical and oral dosing were essentially equivalent (107 ng/ml and 108 ng/ml, respectively).

fungal corneal ulcer = assay: Patient case, fungal corneal ulcer (Example 3); assay type: in vivo, human; details: next day; 5% natamycin drops each hour (day) / every two hours (night) with 5% homatropine four times each day
Protocol: A […] […] […] comes to a clinic complaining of severe pain, redness, tearing, and photophobia in […] left eye. One day before, the patient was hit by a tree twig while playing football in the park. Severe conjunctival hyperemia with clear discharge is observed. […] Intraocular pressure is also elevated (20 mmHg) by Goldman tonometry. A fungal corneal ulcer is diagnosed. The patient is administered 5% natamycin drops each hour during the day and every two hours at night and 5% homatropine four times each day for […] left eye. […] The patient is experiencing blurriness in the left eye. […] The extent of Na Fl stain is also enlarged. The patient is given 0.15% amphotericin B drops and 5% ketoconazole-conjugate drops once daily in both eyes. […] 5% natamycin drops every two hours are administered around the clock, as well as 5% homatropine two times daily, and 5% ketoconazole-conjugate drops once daily.

SMILES: CC12CC3CC(N)(C1)CC(C(=O)OCC(CO)OCn1cnc4c(=O)[nH]c(N)nc41)(C3)C2 (stereo not shown) [Ganciclovir-conjugate]
- clinical outcome (CMV retinitis; one month follow-up, same regimen): complete remission of ocular manifestations of CMV retinitis
- ophthalmic examination outcome (CMV retinitis; two-week follow-up, 0.5% 1 drop four times daily in both eyes): reduction in hemorrhages around the retinal vessels and cotton wool spots

- pulse rate ([1]; human, in vivo): 65 beats/min
SMILES: CC(C)(C)NC[C@H](O)COc1nsnc1N1CCOCC1 [Timolol]
- intraocular pressure ([1]; after two weeks of Timolol 0.5% 1 drop two times daily, both eyes, baseline 32 mmHg, Goldmann tonometer): 28 mmHg
- blood pressure ([1]; human, in vivo): 118/86

SMILES: CC12CC3CC(C)(C1)CC(N)(C3)C2.Cl [memantine, 1-amino-3,5-dimethyladamantane hydrochloride]
- apparent octanol/water partition coefficient (Log) [2]: 3.0
- solubility [3]: 3.5%
- pKa (pKa of the charged amine): 10.3
- tissue distribution after topical dosing (autoradiography) ([4]; 0.74% aqueous isotonic solution pH 7.4, topical ophthalmic, sections 0.25-24 h post dosing): present in the posterior sclera, choroids and/or retina
- half-life in the posterior globe (qualitative) ([4]; albino and pigmented rabbits, topical ophthalmic 0.74% solution): relatively long
- binding to ocular melanin (autoradiography intensity in pigmented tissues) ([4]; pigmented tissues, topical ophthalmic 0.74% solution): bound to the ocular melanin
- route of penetration from topical delivery (autoradiography) ([4]; topical delivery): trans-retinal route of penetration across the blood-retinal barrier
- binding to natural and synthetic melanin (In-vitro melanin binding): strongly bound
- concentration at 7 days ([5]; 35 μl of a 0.1% aqueous solution, topical, 35 μl of 0.1% aqueous solution twice a day for 7 days): 107 ng/mL
- concentration at 7 days ([5]; oral, 2 mg/kg for seven days): 108 ng/mL

SMILES: C[C@@H]1C/C=C/C=C/C=C/C=C/[C@H](O[C@@H]2O[C@H](C)[C@@H](O)[C@H](N)[C@@H]2O)C[C@@H]2O[C@](O)(C[C@@H](O)C[C@H]3O[C@@H]3/C=C/C(=O)O1)C[C@H](O)[C@H]2C(=O)O [natamycin]
- clinical outcome (fungal corneal ulcer): symptoms have not improved
